This is an account of results in patent publication US20130317037A1, “METHOD OF ADMINISTRATION AND TREATMENT” (GlaxoSmithKline Intellectual Property Development Limited, priority 2010, published 2013).

The test system of one assay is KPL-1. Description: Panel A proliferation assay (CellTiter-Glo); HER2 2 copies, KRAS WT, PIK3CA p.E545K. Conditions: for IC50: Homo sapiens. Type of assay: cell-based, human. The method, then:
(§1) A total of 15 breast cancer cell lines were used in this study. […] Cells of each line were seeded into a 384-well microtiter plate at two cell densities. Low density ranges were 300-1800 cells/well, and a high density was 600 to 3600 cells/well). The plating density was determined by the rate of proliferation of the cell line in the absence of any inhibitor and varied amongst cell lines. High plating densities were double that of low density. Each cell density was plated in triplicate. […] In addition, there were 24 wells of dimethyl sulfoxide (DMSO)-treated controls at each density. After seeding, the cells were incubated at 37° C. in 5% CO2 for 24 hours. […] After a 72 h incubation, an equal volume of the CellTiter-Glo (CellTiter-Glo Luminescent Cell Viability Assay, Promega, Madison, Wis.) to that of the cell culture medium was added into each well of the plate. After the contents were mixed to induce cell lysis and stabilization, cell luminescence was recorded using a SpectraMax M5^e (Molecular Devices, Sunnyvale, Calif., USA)
(§2) Specifically, the midpoint of the growth window (the gIC50) falls half way between the number of cells at the time of compound addition (T=0) and the growth of control cells treated with DMSO. The gIC50 value serves as a metric for measuring the inhibition of proliferation in cancer cells. The curves for each seeding density for each cell line were manually inspected for both data quality and appropriateness of curve fitting. Where the starting data were poor the curve and subsequent gIC50s were excluded from further analysis. Cell line seedings were considered of poor quality when the r^2 value of the fitted curve was <0.75. Finally, where data quality permits, the Ymin values (defined as the maximum growth inhibition relative to the cell density at Time-zero) were calculated as a measure of cytotoxicity where data were of reasonable quality.
For orientation: ATP-based viability assays read luminescence as a measure of living cells.

The next assay relates to SK-BR-3. Description: Panel A proliferation assay (CellTiter-Glo); HER2 Gain ≧5, KRAS WT, PIK3CA WT. The format is cell-based, human. Particulars: for IC50: Homo sapiens. The method, then:
(§3) A total of 15 breast cancer cell lines were used in this study. These cells were cultured in RPMI-1640 and supplemented with 5% or 10% fetal bovine serum, 2 mM GlutaMAX™ and 1 mM sodium pyruvate, or in growth medium recommended by the suppliers [American Type Culture Collection, Manassas, Va., USA; Developmental Therapeutics Program, National Cancer Institute, Bethesda, Md., USA; German Collection of Microorganisms and Cell Cultures (DSMZ), Braunschweig, Germany; European Collection of Cell Cultures (ECACC), Porton Down, UK]. Cells of each line were seeded into a 384-well microtiter plate at two cell densities. Low density ranges were 300-1800 cells/well, and a high density was 600 to 3600 cells/well). The plating density was determined by the rate of proliferation of the cell line in the absence of any inhibitor and varied amongst cell lines. High plating densities were double that of low density. Each cell density was plated in triplicate. In total there were 30 wells to be treated with increasing concentrations of Compound B for each cell line at each density. In addition, there were 24 wells of dimethyl sulfoxide (DMSO)-treated controls at each density. After seeding, the cells were incubated at 37° C. in 5% CO2 for 24 hours. Subsequently, Compound B was added to each cell line with 10 concentrations. The dosing solution of Compound B was first prepared in DMSO at a master stock concentration of 10 mM. 1:3 serial dilutions were then made of the stock solution to give a range of working stock concentrations; 10.00 mM, 3.164 mM, 1.001 mM, 316.9 μM, 100.3 μM, 31.74 μM, 10.04 μM, 3.178 μM, 1.006 μM and 318.3 nM. The working stock concentrations of Compound B were then dispensed into the seeded cancer cell lines using a Biomek FX liquid handler to give final treatment concentrations of 0.1% of the stock concentration. A similar volume of DMSO without Compound B was dispensed into the 24 control wells of each seeding density at a concentration of 0.1%. Also, a zero-time plate prepared with a similar cell seeding was read for each cell line at each seeding density immediately after the addition of the DMSO control. After a 72 h incubation, an equal volume of the CellTiter-Glo (CellTiter-Glo Luminescent Cell Viability Assay, Promega, Madison, Wis.) to that of the cell culture medium was added into each well of the plate. After the contents were mixed to induce cell lysis and stabilization, cell luminescence was recorded using a SpectraMax M5^e (Molecular Devices, Sunnyvale, Calif., USA)
as §2, with “The luminescence of Compound B treated cells was compared relative to the average of the 24 DMSO-treated control wells at each cell density for every concentration of Compound B for all triplicate wells. The percent intensity values were used in model 205 of XLfit in Microsoft Excel to calculate gIC50s for the low and high seeding density (a 4 parameter logistical fit). Specifically,” for “Specifically,”

Another assay relates to UACC-812. The description is as above. Type of assay: cell-based, human. Conditions: for IC50: Homo sapiens. Here is the method: as §3
as §2, with “The luminescence of Compound B treated cells was compared relative to the average of the 24 DMSO-treated control wells at each cell density for every concentration of Compound B for all triplicate wells. The percent intensity values were used in model 205 of XLfit in Microsoft Excel to calculate gIC50s for the low and high seeding density (a 4 parameter logistical fit). Specifically,” for “Specifically,”

Assay [1] relates to panel of 15 human breast cell lines. Nature of the assay: Breast Cancer Cell Line Panel A proliferation assay, panel summary. Type of assay: cell-based. Here is the method: as §3, with “The dosing solution of Compound B was first prepared in DMSO at a master stock concentration of 10 mM. 1:3 serial dilutions were then made of the stock solution to give a range of working stock concentrations; 10.00 mM, 3.164 mM, 1.001 mM, 316.9 μM, 100.3 μM, 31.74 μM, 10.04 μM, 3.178 μM, 1.006 μM and 318.3 nM. The working stock concentrations of Compound B were then dispensed into the seeded cancer cell lines using a Biomek FX liquid handler to give final treatment concentrations of 0.1% of the stock concentration. A similar volume of DMSO without Compound B was dispensed into the 24 control wells of each seeding density at a concentration of 0.1%.” left out, “After a 72 h incubation, an equal volume of the CellTiter-Glo (CellTiter-Glo Luminescent Cell Viability Assay, Promega, Madison, Wis.) to that of the cell culture medium was added into each well of the plate.” left out
The luminescence of Compound B treated cells was compared relative to the average of the 24 DMSO-treated control wells at each cell density for every concentration of Compound B for all triplicate wells. […] Finally, where data quality permits, the Ymin values (defined as the maximum growth inhibition relative to the cell density at Time-zero) were calculated as a measure of cytotoxicity where data were of reasonable quality.

For a further assay, the system named is MDA-MB-231. Description: Panel A proliferation assay (CellTiter-Glo); HER2 2 copies, KRAS p.G13D, PIK3CA WT. The format is cell-based, human. Particulars: for IC50: Homo sapiens. Here is the method:
as §1, §2

Where two headings read alike, the source gives them in different places.

On to `COc1ncc(-c2ccc3nccc(-c4ccnnc4)c3c2)cc1NS(=O)(=O)c1ccc(F)cc1F` [Compound B, 2,4-difluoro-N-{2-(methyloxy)-5-[4-(4-pyridazinyl)-6-quinolinyl]-3-pyridinyl}benzenesulfonamide], for which the IC50 stood at 2.7 nM in the assay on KPL-1 (KPL-1, high seeding density, 72 h, read-out: High Density gIC50); 2 nM in the assay on KPL-1 (KPL-1, low seeding density, 72 h, read-out: Low Density gIC50); 2.35 nM in the assay on KPL-1 (KPL-1, mean of low and high density, read-out: Mean gIC50); 4.2 nM in the assay on SK-BR-3 (SK-BR-3, high seeding density, 72 h, read-out: High Density gIC50); 2.9 nM in the assay with SK-BR-3 (SK-BR-3, low seeding density, 72 h, read-out: Low Density gIC50); 3.55 nM with SK-BR-3 (SK-BR-3, mean of low and high density, read-out: Mean gIC50). Besides, the IC50 in the assay on UACC-812 (UACC-812, high seeding density, 72 h, read-out: High Density gIC50) is 0.1 nM; in the assay on UACC-812 (UACC-812, low seeding density, 72 h, read-out: Low Density gIC50), 0.1 nM; in the assay with UACC-812 (UACC-812, mean of low and high density, read-out: Mean gIC50), 0.1 nM; in assay [1] (15 human breast cell lines, read-out: overall median gIC50), 3.2 nM; in the assay on MDA-MB-231 (MDA-MB-231, high seeding density, 72 h, read-out: High Density gIC50), 357 nM; with MDA-MB-231 (MDA-MB-231, low seeding density, 72 h, read-out: Low Density gIC50), 97.1 nM. In addition, in the assay on MDA-MB-231 (MDA-MB-231, mean of low and high density, read-out: Mean gIC50), the IC50 was determined as 227 nM. For the same molecule, the “High Density Y-Min” value is listed as 130.2% in the assay with KPL-1 (KPL-1, high density, % of cells at T = 0); 54.5% in the assay on SK-BR-3 (SK-BR-3, high density, % of cells at T = 0); 12.6% with UACC-812 (UACC-812, high density, % of cells at T = 0); 357.2% with MDA-MB-231 (MDA-MB-231, high density, % of cells at T = 0). For the same molecule, the “Low Density Y-Min” value in the assay on KPL-1 (KPL-1, low density, % of cells at T = 0) is given as 126.6%; in the assay on SK-BR-3 (SK-BR-3, low density, % of cells at T = 0), 52.3%; in the assay on UACC-812 (UACC-812, low density, % of cells at T = 0), 12.1%; in the assay on MDA-MB-231 (MDA-MB-231, low density, % of cells at T = 0) it was 189.1%. In addition, the “tumor cell lines with gIC50>20 nM” value in assay [1] (number of lines / lines tested) was 3/15. Also, the “tumor cell lines with gIC50s<3 nM” value in assay [1] (number of lines / lines tested) was 7/15.
